Legend:
Format in all cases: in vivo
[1] = system: Housefly [Musca domestica]; assay: Housefly insecticidal test (HF); settings: per 25 female houseflies, 48 hours
[2] = system: Rice water weevil [Lissorhoptrus oryzophilus (Kuschel)]; assay: Rice water weevil test (RWW); settings: per weevil, topical, female adults, 48 hours
Method: The compounds in Tables 1 and 2 above were tested for insecticidal activity using the following testing procedures. LC50 values, based on the results of these tests and calculated according to dosage-mortality curves, are expressed in Table 3.
Rice water weevil [Lissorhoptrus oryzophilus (Kuschel)]
Test compounds were diluted in acetone. Droplets (1 ul) of test solutions were applied to the ventral abdomens of ten female adult weevils. The treated weevils were placed in containers with wet cotton balls and rice foliage. The containers were covered and kept at a temperature of about 25° C. Mortality was recorded after 48 hours. […] The LC50 values are expressed below in Table 3 under the heading "RWW" in terms of μg of test compound per weevil.

[3] = system: Tobacco Budworm [Heliothis virescens (Fabricius)] eggs; assay: Tobacco budworm egg test (TBW-E); settings: percent in solution
[4] = system: Aster Leafhopper [Macrosteles fascifrens (Stal)]; assay: Aster leafhopper test (LH); settings: adults/nymphs, 48 hours, percent in solution
[5] = system: Cabbage Looper [Trichoplusia ni (Hubner)]; assay: Cabbage looper test (CL); settings: second-instar larvae, 3-5 days, percent in solution
[6] = system: Beet Armyworm (Spodoptera exigua); assay: Beet armyworm test (BAW); settings: second-instar larvae, five days, percent in solution
Summary of the method: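 Sugar beet leaves were dipped 2-3 s in compound diluted in 50-50 acetone-water, dried, then infested with five second-instar larvae in humid dishes. Mortality was scored after five days at concentrations from 0.1% downward. LC50 was taken from dosage-mortality curves as percent compound in solution.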

[7] = system: Maize weevil [Sitophilus Zeamais (Motschulsky)]; assay: Maize weevil test (MW); settings: adult weevils, treated corn seeds, 48 hours, percent in solution
Summary of the method: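 Adult weevils (10) were placed with four corn seeds that had been dipped 2-3 s in compound dissolved in 50:50 acetone:water, then dried, and held at about 25° C. Mortality was scored at 48 h. LC50 was taken from dosage-mortality curves and expressed as percent compound in solution, from a 0.01% top concentration.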

[8] = system: Tobacco Budworm [Heliothis virescens (Fabricius)]; assay: Tobacco budworm contact test (TBW-C); settings: second-instar larvae, 5 days, percent in solution
Summary of the method: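 Cotton cotyledons dipped 2–3 s in compound in 50:50 acetone–water, dried, then infested with 5 second-instar larvae and held 5 days at high humidity before scoring mortality.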

SMILES | LC50 HF [1] [µg] | LC50 RWW [2] [µg] | LC50 TBW E [3] [%] | LC50 LH [4] [%] | LC50 CL [5] [%] | LC50 BAW [6] [%] | LC50 MW [7] [%] | LC50 TBW C [8] [%]
FC(F)(F)c1cccc(N=C(OCc2cccc(Oc3ccccc3)c2)C(Cl)Cl)c1 [Compound 66] | 9.7 | > 2.5 | 0.06 | 0.001 | < 0.0025 | 0.0065 |  | 
CC(C)C(=Nc1ccc(Cl)c(Cl)c1)OCc1ccc(F)c(Oc2ccc(F)cc2)c1 [Compound 289] | 10 | 0.082 | 0.006 | 0.0003 | 0.00007 |  | > 0.01 | 
CC(C)C(=Nc1ccc(F)c(F)c1)OCc1ccc(F)c(Oc2ccc(Cl)cc2)c1 [Compound 295] | 7.8 | > 2.5 | 0.01 | 0.0001 | 0.00004 |  | 0.0053 | 0.0005
CC(C)C(=Nc1ccc(Cl)c(Cl)c1)OCc1ccc(F)c(Oc2ccc(Cl)cc2)c1 [Compound 296] | 38 | 0.14 | 0.025 | 0.0003 | 0.00025 |  |  | 0.00045
CC(C)C(=Nc1ccc(F)c(Br)c1)OCc1ccc(F)c(Oc2ccc(Cl)cc2)c1 [Compound 298] | 13 | > 2.5 | 0.015 | 0.0001 | 0.0001 |  | 0.008 | 0.0008
CC(C)C(=Nc1ccc(F)c(C(F)(F)F)c1)OCc1ccc(F)c(Oc2ccccc2)c1 [Compound 300] | 14 | 0.075 | 0.024 | 0.00002 | 0.0003 |  | 0.01 | 0.001
CC(C)C(=Nc1ccc(C(F)(F)F)cc1)OCc1ccc(F)c(Oc2ccc(Cl)cc2)c1 [Compound 324] | > 100 | 0.06 | 0.025 |  | 0.00014 | 0.0024 |  | 0.0004
CC(C)C(=Nc1ccc(F)cc1)OCc1ccc(F)c(Oc2ccc(Cl)cc2)c1 [Compound 325] | 5 | > 2.5 | 0.037 |  | 0.00012 | 0.0025 |  | 0.0006
CC(C)C(=Nc1ccc(F)c(Cl)c1F)OCc1ccc(F)c(Oc2ccc(F)cc2)c1 [Compound 330] | 5 | 0.06 | 0.037 | < 0.05 | 0.00012 |  | 0.001 | 0.00035
CC(C)C(=Nc1ccc(F)c(Cl)c1F)OCc1cccc(Oc2ccc(Cl)cc2)c1 [Compound 331] | 20 | > 2.5 | 0.04 |  | 0.0002 | 0.002 |  | 0.0004
CC(C)C(=Nc1ccc(OC(F)(F)F)cc1)OCc1ccc(F)c(Oc2ccccc2)c1 [Compound 338] | 26 | 0.044 | 0.01 |  | 0.000065 |  | 0.0053 | 0.00037
CC(C)C(=Nc1ccc(F)c(Cl)c1F)OCc1ccc(F)c(Oc2ccccc2)c1 [Compound 451] | 3.6 | 0.065 | > 0.1 | 0.0002 | 0.0001 |  | 0.0051 | 0.00025
CC(C)C(=Nc1ccc(F)c(Cl)c1)OCc1cccc(Oc2ccc(F)cc2)n1 [Compound 461] | 6 | > 2.5 | 0.01 |  | 0.00008 | 0.0035 | 0.0075 | 

— patent publication US5089623A, “Certain imidate insecticides” (Imperial Chemical Industries Plc, priority 1990, dated 1992)
